From patent US7396853B2, “2-phenyl-3,3,3-trifluoro-2-hydroxy-propionic acid derivatives” (Hoffmann-La Roche Inc., priority 2005, dated 2008)

Columns and labels:
[1] = biological target: T1, human GABABR1aR2a (Homo sapiens, UniProt O75899+Q9UBS5); assay: Intracellular Ca2+ mobilization assay in CHO-GABABR1aR2a-Gα16 cell (enhancer concentration-response at 10 nM GABA); format: cell-based; conditions: for EC50: enhancer potency in presence of 10 nM GABA (EC10), CHO cells expressing human GABABR1aR2a and Gα16; for Emax: maximum enhancing effect in presence of 10 nM GABA (EC10), normalized to 10 μM GABA alone = 100%, 10 nM GABA alone = 0%, enhancer 0.001-30 μM applied 15 min before GABA
T1 construct: expressed in transfected cells
Protocol: (§1) Intracellular Ca^2+ Mobilization Assay
(§2) The Chinese Hamster Ovary (CHO) cells stably expressing human GABABR1aR2a and Gα16 were seeded at 5×10^4 cells/well in the poly-D-lysine treated, 96-well, black/clear-bottomed plates (BD Biosciences, Palo Alto, Calif.). […] Probenecid (250 mM) (catalog No. P8761) was from Sigma, Buchs, Switzerland. […] The enhancers were applied 15 min before the application of the GABA. For GABA shift assay, concentration-response curves of GABA (0.0003-30 μM) were determined in the absence and presence of 10 μM enhancer. […] Responses were measured as peak increase in fluorescence minus basal, normalized to the maximal stimulatory effect induced by 10 μM GABA alone (considered 100%) and 10 nM GABA alone (considered 0%).

[2] = biological target: T1, human GABABR1aR2a; assay: GABA shift assay (GABA concentration-response with and without 10 μM enhancer, FLIPR Ca2+ mobilization in CHO-GABABR1aR2a-Gα16 cell); format: cell-based; conditions: GABA 0.0003-30 μM, log ratio
Protocol: as §1, §2

T1 sequence (Q9UBS5 15-961 limits assumed): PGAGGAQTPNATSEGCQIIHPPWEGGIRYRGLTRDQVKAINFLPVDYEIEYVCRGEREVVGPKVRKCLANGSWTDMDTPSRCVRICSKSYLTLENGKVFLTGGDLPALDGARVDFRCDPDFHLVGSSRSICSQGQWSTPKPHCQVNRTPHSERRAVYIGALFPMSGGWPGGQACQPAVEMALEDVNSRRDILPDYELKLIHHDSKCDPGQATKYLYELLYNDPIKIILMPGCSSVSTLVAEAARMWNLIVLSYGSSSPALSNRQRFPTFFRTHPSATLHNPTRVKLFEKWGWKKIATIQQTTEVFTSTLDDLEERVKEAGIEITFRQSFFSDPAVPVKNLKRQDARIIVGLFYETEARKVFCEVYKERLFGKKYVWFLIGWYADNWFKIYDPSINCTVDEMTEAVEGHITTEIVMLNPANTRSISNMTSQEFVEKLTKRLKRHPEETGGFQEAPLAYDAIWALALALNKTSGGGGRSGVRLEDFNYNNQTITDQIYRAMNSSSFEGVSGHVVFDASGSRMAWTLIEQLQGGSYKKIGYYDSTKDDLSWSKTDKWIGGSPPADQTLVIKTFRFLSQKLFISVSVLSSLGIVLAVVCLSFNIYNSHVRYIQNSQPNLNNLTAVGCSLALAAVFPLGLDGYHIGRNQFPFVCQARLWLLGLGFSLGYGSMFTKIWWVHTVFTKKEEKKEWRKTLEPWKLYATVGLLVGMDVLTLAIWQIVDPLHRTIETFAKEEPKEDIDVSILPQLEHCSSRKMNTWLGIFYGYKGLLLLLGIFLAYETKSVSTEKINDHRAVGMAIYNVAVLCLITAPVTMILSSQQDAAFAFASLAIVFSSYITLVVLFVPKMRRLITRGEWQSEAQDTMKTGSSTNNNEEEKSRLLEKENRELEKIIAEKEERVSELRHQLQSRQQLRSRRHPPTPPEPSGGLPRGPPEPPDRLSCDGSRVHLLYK
T1 sequence (O75899 42-941): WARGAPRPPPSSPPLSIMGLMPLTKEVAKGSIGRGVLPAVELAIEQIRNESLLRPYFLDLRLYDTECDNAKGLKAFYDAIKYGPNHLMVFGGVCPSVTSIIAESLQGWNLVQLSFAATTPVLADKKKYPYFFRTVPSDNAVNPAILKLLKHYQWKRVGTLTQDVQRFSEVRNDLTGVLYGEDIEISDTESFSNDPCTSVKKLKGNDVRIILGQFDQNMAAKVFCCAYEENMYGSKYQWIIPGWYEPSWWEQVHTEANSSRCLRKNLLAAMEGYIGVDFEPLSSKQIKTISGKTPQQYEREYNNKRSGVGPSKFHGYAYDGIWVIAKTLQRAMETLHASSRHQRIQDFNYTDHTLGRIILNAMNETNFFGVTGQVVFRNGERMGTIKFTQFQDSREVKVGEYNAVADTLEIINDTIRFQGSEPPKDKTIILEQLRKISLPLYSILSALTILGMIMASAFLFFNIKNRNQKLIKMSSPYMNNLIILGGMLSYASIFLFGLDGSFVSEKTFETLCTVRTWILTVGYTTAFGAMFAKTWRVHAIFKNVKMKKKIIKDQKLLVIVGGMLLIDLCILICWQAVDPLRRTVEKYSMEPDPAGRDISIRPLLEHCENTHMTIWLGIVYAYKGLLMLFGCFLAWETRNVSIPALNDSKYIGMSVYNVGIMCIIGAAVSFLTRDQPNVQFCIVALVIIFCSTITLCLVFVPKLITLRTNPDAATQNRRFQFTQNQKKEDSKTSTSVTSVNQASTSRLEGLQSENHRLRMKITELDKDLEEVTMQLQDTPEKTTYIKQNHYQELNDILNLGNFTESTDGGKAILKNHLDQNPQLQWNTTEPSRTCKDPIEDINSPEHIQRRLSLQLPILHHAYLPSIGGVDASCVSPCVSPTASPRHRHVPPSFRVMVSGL

Row | Compound | EC50 [1] [µM] | Emax [1] [%] | GABA shift Log [EC50 (GABA + 10 μM cp)/EC50 (GABA alone)] [2]
1 | COC(=O)C(O)(c1cc(C(C)(C)C)cc(C(C)(C)C)c1)C(F)(F)F (racemic) [Example 7, (R,S)-2-(3,5-Di-tert-butyl-phenyl)-3,3,3-trifluoro-2-hydroxy-propionic acid methyl ester] | 2.1 | 66 | −0.9
2 | Cc1cc(C(C)(C)C)c2c(c1)C(O)(C(F)(F)F)C(=O)O2 (racemic) [Example 9, (R,S)-7-tert-Butyl-3-hydroxy-5-methyl-3-trifluoromethyl-3H-benzofuran-2-one] | 0.36 | 62 | −1.3
3 | CC(C)(C)c1cc(C(C)(C)C)c(O)c(C(O)(C(=O)O)C(F)(F)F)c1 (racemic) [Example 3, (R,S)-2-(3,5-Di-tert-butyl-2-hydroxy-phenyl)-3,3,3-trifluoro-2-hydroxy-propionic acid] | 0.32 | 70 | −1
